The numbers were not newly measured in patent US20140322314A1, “Omega-3 Fatty Acid Formulations for Use as Pharmaceutical Treatment” (Matinas BioPharma, Inc., priority 2013, published 2014), which cites them from elsewhere.

The conditions of this series: in vivo.

SMILES strings stand for the structures.

`CC(C)n1c(/C=C/C(O)CC(O)CC(=O)O)c(-c2ccc(F)cc2)c2ccccc21` (centres unmarked) [fluvastatin]: the bioavailable entry is “approximately 24%”. On to `CC[C@H](C)C(=O)O[C@H]1C[C@@H](C)C=C2C=C[C@H](C)[C@H](CC[C@@H]3C[C@@H](O)CC(=O)O3)[C@H]21` [lovastatin], for which the absorbed at rates result was “about 30%”.
